Measurements: ChEMBL document CHEMBL5344407, “Histone deacetylases (HDACs) as the promising immunotherapeutic targets for hematologic cancer treatment” (Eur J Med Chem, 2023)
Blank lines part the entries; values can stand above or below the compound they belong to.

How the values were obtained:
Histone deacetylase 1 [1] = target: T1, Histone deacetylase 1 (Homo sapiens, UniProt Q13547); assay: Inhibition of N-terminal GST-tagged full length human HDAC1 expressed in baculovirus system using FTS as substrate preincubated for 10 mins followed by substrate addition and measured after 2 hrs by fluorescence based analysis
[2] = target: T2, Protein deacetylase HDAC6 (Homo sapiens, UniProt Q9UBN7); assay: Inhibition of N-terminal GST-tagged full length human HDAC6 expressed in baculovirus system using FTS as substrate preincubated for 10 mins followed by substrate addition and measured after 2 hrs by fluorescence based analysis
T2 sequence (Q9UBN7 whole entry): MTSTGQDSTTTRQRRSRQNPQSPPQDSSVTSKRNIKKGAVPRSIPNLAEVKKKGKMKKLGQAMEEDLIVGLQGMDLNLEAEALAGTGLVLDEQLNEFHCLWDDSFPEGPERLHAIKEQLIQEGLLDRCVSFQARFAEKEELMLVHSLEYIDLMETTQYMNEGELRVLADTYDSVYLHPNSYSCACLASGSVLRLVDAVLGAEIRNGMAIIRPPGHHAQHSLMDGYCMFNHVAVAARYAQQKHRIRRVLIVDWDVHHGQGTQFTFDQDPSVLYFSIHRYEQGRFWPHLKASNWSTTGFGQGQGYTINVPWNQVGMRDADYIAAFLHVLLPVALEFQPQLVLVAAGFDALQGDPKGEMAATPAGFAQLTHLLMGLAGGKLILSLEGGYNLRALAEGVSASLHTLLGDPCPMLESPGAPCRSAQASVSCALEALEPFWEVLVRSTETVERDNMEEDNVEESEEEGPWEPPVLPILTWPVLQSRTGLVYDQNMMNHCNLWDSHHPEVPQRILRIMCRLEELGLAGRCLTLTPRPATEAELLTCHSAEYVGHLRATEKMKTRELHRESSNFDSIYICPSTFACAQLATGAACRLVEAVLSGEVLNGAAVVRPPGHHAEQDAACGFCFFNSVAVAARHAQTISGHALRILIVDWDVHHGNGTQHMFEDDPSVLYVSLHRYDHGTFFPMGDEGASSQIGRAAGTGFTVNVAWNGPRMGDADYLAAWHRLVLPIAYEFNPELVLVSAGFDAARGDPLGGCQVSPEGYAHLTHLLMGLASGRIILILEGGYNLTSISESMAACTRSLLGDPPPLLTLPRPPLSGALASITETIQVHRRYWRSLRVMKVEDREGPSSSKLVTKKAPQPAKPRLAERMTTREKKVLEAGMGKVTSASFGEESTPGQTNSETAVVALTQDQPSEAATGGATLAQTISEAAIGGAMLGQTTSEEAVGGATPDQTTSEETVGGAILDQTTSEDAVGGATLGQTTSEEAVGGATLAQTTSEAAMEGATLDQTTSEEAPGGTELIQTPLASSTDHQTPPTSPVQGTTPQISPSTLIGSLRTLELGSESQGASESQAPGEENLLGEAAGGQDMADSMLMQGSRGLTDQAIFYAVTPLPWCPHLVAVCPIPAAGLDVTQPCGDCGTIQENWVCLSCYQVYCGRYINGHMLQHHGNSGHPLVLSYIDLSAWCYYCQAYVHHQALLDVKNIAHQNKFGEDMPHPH

Histone deacetylase 3 [3] = target: T3, Histone deacetylase 3 (Homo sapiens, UniProt O15379); assay: Inhibition of N-terminal GST-tagged full length human HDAC3 expressed in baculovirus system using FTS as substrate preincubated for 10 mins followed by substrate addition and measured after 2 hrs by fluorescence based analysis
Histone deacetylase 2 [4] = target: T4, Histone deacetylase 2 (Homo sapiens, UniProt Q92769); assay: Inhibition of N-terminal GST-tagged full length human HDAC2 expressed in baculovirus system using FTS as substrate preincubated for 10 mins followed by substrate addition and measured after 2 hrs by fluorescence based analysis
Histone deacetylase 8 = target: T5, Histone deacetylase 8 (Homo sapiens, UniProt Q9BY41); assay: Inhibition of N-terminal GST-tagged full length human HDAC8 expressed in baculovirus system using FTS as substrate preincubated for 10 mins followed by substrate addition and measured after 2 hrs by fluorescence based analysis
T5 sequence (Q9BY41 whole entry): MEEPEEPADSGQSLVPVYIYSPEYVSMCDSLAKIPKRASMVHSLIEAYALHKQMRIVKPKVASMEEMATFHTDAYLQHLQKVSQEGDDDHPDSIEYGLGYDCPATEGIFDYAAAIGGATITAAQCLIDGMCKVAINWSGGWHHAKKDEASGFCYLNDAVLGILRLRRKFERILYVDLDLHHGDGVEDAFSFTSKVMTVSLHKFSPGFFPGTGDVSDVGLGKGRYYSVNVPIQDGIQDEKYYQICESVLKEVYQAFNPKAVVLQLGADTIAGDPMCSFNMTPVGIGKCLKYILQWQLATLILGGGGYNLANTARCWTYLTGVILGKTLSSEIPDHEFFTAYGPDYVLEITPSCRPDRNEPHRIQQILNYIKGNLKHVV

Histone deacetylase 1 [5] = target: T1, Histone deacetylase 1; assay: Inhibition of human recombinant HDAC1 using ZMAL (Z-(Ac)Lys-AMC) as fluorogenic substrate preincubated for 5 mins followed by substrate addition and measured after 1 hr by fluorescence based analysis
Histone deacetylase 2 [6] = target: T4, Histone deacetylase 2; assay: Inhibition of human full length recombinant HDAC2 expressed in baculovirus infected Sf9 cells using RHKKAc as substrate preincubated for 10 mins followed by substrate addition and measured after 2 hrs by fluorescence based analysis
Histone deacetylase 3 [7] = target: T3, Histone deacetylase 3; assay: Inhibition of recombinant full length human HDAC3 expressed in insect Sf9 cells
Histone deacetylase 11 = target: T6, Histone deacetylase 11 (Homo sapiens, UniProt Q96DB2); assay: Inhibition of HDAC11 (unknown origin)
T6 sequence (Q96DB2 whole entry): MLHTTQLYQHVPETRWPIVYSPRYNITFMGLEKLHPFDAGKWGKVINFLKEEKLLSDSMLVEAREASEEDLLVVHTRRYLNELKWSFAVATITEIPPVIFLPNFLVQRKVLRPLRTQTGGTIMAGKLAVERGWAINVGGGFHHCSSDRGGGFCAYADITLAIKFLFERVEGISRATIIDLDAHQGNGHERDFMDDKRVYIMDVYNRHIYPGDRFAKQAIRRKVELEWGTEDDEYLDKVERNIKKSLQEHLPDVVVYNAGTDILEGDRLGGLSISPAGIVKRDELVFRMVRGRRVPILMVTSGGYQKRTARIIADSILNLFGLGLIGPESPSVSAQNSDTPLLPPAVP

[8] = target: T7, Polyamine deacetylase HDAC10 (Homo sapiens, UniProt Q969S8); assay: Inhibition of HDAC10 (unknown origin)
T7 sequence (Q969S8 whole entry): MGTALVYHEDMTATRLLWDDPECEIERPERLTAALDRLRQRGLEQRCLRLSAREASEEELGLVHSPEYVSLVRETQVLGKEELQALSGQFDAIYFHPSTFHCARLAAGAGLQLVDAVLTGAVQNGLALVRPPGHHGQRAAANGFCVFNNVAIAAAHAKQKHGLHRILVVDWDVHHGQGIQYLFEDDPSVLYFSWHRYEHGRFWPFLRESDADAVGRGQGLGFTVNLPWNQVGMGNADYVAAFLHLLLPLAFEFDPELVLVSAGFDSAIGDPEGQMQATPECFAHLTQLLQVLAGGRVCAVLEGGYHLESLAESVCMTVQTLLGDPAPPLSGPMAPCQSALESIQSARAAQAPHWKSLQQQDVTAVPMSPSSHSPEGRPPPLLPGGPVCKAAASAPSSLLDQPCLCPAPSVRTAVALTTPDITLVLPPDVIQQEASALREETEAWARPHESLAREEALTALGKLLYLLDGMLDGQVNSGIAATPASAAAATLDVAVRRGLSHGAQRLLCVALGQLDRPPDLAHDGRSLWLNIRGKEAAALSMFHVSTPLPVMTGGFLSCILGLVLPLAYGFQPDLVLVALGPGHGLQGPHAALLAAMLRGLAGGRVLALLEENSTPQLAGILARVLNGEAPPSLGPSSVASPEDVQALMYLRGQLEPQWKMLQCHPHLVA

T3 sequence (O15379 whole entry): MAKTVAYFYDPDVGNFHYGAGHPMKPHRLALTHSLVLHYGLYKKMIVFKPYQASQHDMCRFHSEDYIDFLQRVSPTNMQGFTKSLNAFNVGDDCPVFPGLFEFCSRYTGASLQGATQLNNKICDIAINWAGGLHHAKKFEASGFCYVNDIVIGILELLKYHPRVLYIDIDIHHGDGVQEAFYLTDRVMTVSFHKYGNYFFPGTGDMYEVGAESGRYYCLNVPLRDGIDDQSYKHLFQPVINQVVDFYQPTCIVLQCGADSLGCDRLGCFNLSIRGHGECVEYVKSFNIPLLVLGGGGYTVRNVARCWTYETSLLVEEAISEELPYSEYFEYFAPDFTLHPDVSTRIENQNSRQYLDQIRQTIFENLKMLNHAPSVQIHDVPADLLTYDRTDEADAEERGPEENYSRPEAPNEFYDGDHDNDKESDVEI
T1 sequence (Q13547 whole entry): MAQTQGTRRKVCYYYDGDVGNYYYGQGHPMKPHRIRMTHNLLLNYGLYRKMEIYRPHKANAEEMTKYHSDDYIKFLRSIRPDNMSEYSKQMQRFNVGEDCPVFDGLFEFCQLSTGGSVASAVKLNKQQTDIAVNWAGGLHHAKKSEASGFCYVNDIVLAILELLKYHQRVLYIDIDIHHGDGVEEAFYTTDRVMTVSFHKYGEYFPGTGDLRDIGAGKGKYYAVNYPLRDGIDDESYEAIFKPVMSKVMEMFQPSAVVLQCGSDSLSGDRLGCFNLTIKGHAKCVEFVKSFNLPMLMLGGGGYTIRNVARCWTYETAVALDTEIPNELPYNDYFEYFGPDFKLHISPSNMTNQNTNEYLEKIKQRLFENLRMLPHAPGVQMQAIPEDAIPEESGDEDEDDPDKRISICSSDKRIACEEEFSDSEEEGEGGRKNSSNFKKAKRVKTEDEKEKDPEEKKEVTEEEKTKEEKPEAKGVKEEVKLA
T4 sequence (Q92769 whole entry): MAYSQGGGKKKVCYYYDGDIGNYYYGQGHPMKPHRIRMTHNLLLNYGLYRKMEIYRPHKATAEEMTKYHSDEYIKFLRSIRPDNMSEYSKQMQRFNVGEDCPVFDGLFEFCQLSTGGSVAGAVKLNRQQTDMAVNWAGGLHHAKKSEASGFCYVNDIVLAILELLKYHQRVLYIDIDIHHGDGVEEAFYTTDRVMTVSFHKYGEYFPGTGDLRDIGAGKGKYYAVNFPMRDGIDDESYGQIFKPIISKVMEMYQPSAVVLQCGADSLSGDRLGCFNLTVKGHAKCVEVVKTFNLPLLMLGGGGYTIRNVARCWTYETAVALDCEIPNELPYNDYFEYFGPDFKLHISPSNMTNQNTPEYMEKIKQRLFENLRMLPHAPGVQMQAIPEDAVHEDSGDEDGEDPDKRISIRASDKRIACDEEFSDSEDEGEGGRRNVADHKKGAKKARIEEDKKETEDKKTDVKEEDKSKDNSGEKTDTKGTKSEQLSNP

IC50 (Histone deacetylase 1 [1]): 8.35 nM
IC50 [2]: 0.4 nM
IC50 (Histone deacetylase 3 [3]): 51.6 nM
IC50 (Histone deacetylase 2 [4]): 15.4 nM
IC50 (Histone deacetylase 8): 1430 nM
Compound: O=C(CCCCCCC(=O)N/N=C/c1ccc(N(c2ccccc2)c2ccccc2)cc1)NO

IC50 (Histone deacetylase 1 [5]): 1.2 nM
IC50 (Histone deacetylase 2 [6]): 2.4 nM
IC50 (Histone deacetylase 3 [7]): 2 nM
Compound: CC(C)[C@H](N)C(=O)SCC/C=C/[C@@H]1CC(=O)NCc2nc(cs2)C(=O)NC(C)(C)C(=O)N[C@@H](C(C)C)C(=O)O1 [BOCODEPSIN BESYLATE]

IC50 (Histone deacetylase 11): 432 nM
IC50 [8]: 78 nM
Compound: Nc1cc(F)ccc1NC(=O)c1ccc(CNC(=O)/C=C/c2cccnc2)cc1 [TUCIDINOSTAT]
